In the NIST ThermoML archive (doi:10.1016/j.fluid.2015.07.036):
Numbers after ± are expanded uncertainties.

Conditions: for mass density: 100 kPa, Liquid, single sinker densimeter

CCCC[n+]1ccc(C)cc1.N#CC(=C=[N-])C#N [1-butyl-4-methylpyridinium tricyanomethanide]
Conditions	mass density [kg/m3]
263.45 K	1059.1 ± 1.1
267.95 K	1056.28 ± 1.1
273.54 K	1052.57 ± 1.1
278.65 K	1048.92 ± 1.1
283.37 K	1045.67 ± 1.1
288.63 K	1042.4 ± 1.1
293.52 K	1038.75 ± 1.1
298.25 K	1035.8 ± 1.1
303.03 K	1032.82 ± 1.1
308.01 K	1029.21 ± 1.1
313.21 K	1025.76 ± 1.1
318.36 K	1022.75 ± 1.1
323.38 K	1019.48 ± 1.1
327.88 K	1016.44 ± 1.1
332.98 K	1013.51 ± 1.1
337.59 K	1010.37 ± 1.1
342.27 K	1007.38 ± 1.1
348.16 K	1003.72 ± 1.1
353.42 K	1000.42 ± 1.1
358.02 K	997.29 ± 1.1
363.31 K	993.79 ± 1.1

surface tension liquid-gas [mN/m]
Conditions	Ring tensiometer	wilhelmy plate method
288.6 K	49.8 ± 0.82	–
293.53 K	49.54 ± 0.82	49.49 ± 0.27
298.24 K	–	49.18 ± 0.26
298.25 K	49.45 ± 0.82	–
303.01 K	–	48.76 ± 0.26
303.02 K	48.8 ± 0.82	–
307.98 K	48.37 ± 0.81	–
308.01 K	–	48.35 ± 0.26
313.22 K	48.23 ± 0.81	–
313.27 K	–	47.89 ± 0.26
318.3 K	48.03 ± 0.81	–
318.35 K	–	47.44 ± 0.26
323.38 K	–	47.12 ± 0.26
323.41 K	47.28 ± 0.8	–
327.86 K	47.1 ± 0.8	–
327.98 K	–	46.65 ± 0.25
332.9 K	–	46.21 ± 0.25
332.94 K	46.55 ± 0.8	–
337.57 K	46.06 ± 0.79	–
337.68 K	–	45.88 ± 0.25
344.17 K	–	45.37 ± 0.25
344.19 K	45.74 ± 0.79	–
348.14 K	45.27 ± 0.78	–
348.15 K	–	45.03 ± 0.25
353.35 K	44.97 ± 0.78	–
353.43 K	–	44.52 ± 0.25
358.06 K	44.65 ± 0.78	–
358.09 K	–	44.17 ± 0.25
363.37 K	44.18 ± 0.78	–
363.55 K	–	43.66 ± 0.24

CCn1cc[n+](C)c1.N#C[C-](C#N)C#N [1-ethyl-3-methyl-1H-imidazolium tricyanomethanide]
Conditions	mass density [kg/m3]
262.68 K	1106.12 ± 0.68
268.65 K	1101.93 ± 0.68
273.46 K	1098.21 ± 0.68
278.14 K	1095.15 ± 0.68
283.27 K	1091.23 ± 0.68
288.08 K	1088.11 ± 0.68
293.16 K	1084.64 ± 0.68
298.19 K	1081 ± 0.68
303.27 K	1077.46 ± 0.68
308.21 K	1073.93 ± 0.68
313.21 K	1070.64 ± 0.68
318.2 K	1067.14 ± 0.68
323.32 K	1063.82 ± 0.68
327.9 K	1060.39 ± 0.68
333.05 K	1057.29 ± 0.68
338.17 K	1053.46 ± 0.68
342.95 K	1050.5 ± 0.68
348.05 K	1047.15 ± 0.68
352.71 K	1043.86 ± 0.68
358.12 K	1040.23 ± 0.68
364.84 K	1035.96 ± 0.68

Conditions	surface tension liquid-gas [mN/m]
283.22 K, wilhelmy plate method	50.62 ± 0.23
283.25 K, Ring tensiometer	50.71 ± 0.74
288.01 K, wilhelmy plate method	50.33 ± 0.23
288.03 K, Ring tensiometer	50.29 ± 0.74
293.17 K, Ring tensiometer	49.61 ± 0.73
293.19 K, wilhelmy plate method	49.74 ± 0.23
298.13 K, Ring tensiometer	49.45 ± 0.73
298.15 K, wilhelmy plate method	49.4 ± 0.23
303.06 K, Ring tensiometer	48.87 ± 0.72
303.07 K, wilhelmy plate method	48.89 ± 0.22
308.18 K, Ring tensiometer	48.37 ± 0.72
308.19 K, wilhelmy plate method	48.42 ± 0.22
313.19 K, wilhelmy plate method	48.06 ± 0.22
313.27 K, Ring tensiometer	47.99 ± 0.71
318.16 K, wilhelmy plate method	47.48 ± 0.22
318.18 K, Ring tensiometer	47.44 ± 0.71
323.26 K, Ring tensiometer	46.86 ± 0.7
323.3 K, wilhelmy plate method	47.14 ± 0.22
327.9 K, wilhelmy plate method	46.7 ± 0.22
328.44 K, Ring tensiometer	46.65 ± 0.7
333.28 K, Ring tensiometer	46.24 ± 0.7
333.4 K, wilhelmy plate method	46.16 ± 0.22
338.24 K, wilhelmy plate method	45.83 ± 0.22
338.25 K, Ring tensiometer	45.72 ± 0.69
343.18 K, Ring tensiometer	45.39 ± 0.69
343.21 K, wilhelmy plate method	45.31 ± 0.22
347.97 K, Ring tensiometer	44.69 ± 0.69
347.98 K, wilhelmy plate method	44.86 ± 0.22
352.81 K, Ring tensiometer	44.55 ± 0.68
352.89 K, wilhelmy plate method	44.44 ± 0.22
358.17 K, Ring tensiometer	44.06 ± 0.68
358.44 K, wilhelmy plate method	43.93 ± 0.22
365.18 K, Ring tensiometer	43.3 ± 0.67
365.23 K, wilhelmy plate method	43.29 ± 0.22

CCCC[N+]1(C)CCCC1.N#CC(=C=[N-])C#N [1-butyl-1-methylpyrrolidinium tricyanomethanide]
Conditions	mass density [kg/m3]
263.25 K	1028.92 ± 0.88
268.05 K	1026.15 ± 0.88
274.1 K	1022.18 ± 0.88
278.48 K	1019.29 ± 0.88
283.44 K	1015.85 ± 0.88
288.48 K	1012.68 ± 0.88
292.96 K	1010.28 ± 0.88
298.28 K	1006.87 ± 0.88
303.21 K	1003.94 ± 0.88
308.06 K	1000.78 ± 0.88
313.19 K	997.8 ± 0.88
317.91 K	995.05 ± 0.88
323.17 K	991.69 ± 0.88
328.28 K	988.81 ± 0.88
333.1 K	985.27 ± 0.88
337.77 K	982.59 ± 0.88
343.16 K	979.77 ± 0.88
347.27 K	977.15 ± 0.88
353.46 K	973.98 ± 0.88
358.07 K	970.73 ± 0.88
364.38 K	967.59 ± 0.88

surface tension liquid-gas [mN/m]
Conditions	Ring tensiometer	wilhelmy plate method
263.32 K	52.96 ± 0.88	–
267.79 K	52.64 ± 0.88	–
273.16 K	52.22 ± 0.87	–
278.42 K	52.03 ± 0.87	–
283.38 K	51.73 ± 0.87	51.36 ± 0.43
288.45 K	–	50.96 ± 0.43
288.46 K	51.49 ± 0.86	–
292.95 K	51.08 ± 0.86	–
292.96 K	–	50.68 ± 0.43
298.26 K	50.33 ± 0.85	–
298.36 K	–	50.23 ± 0.43
303.17 K	49.82 ± 0.85	–
303.2 K	–	50.1 ± 0.42
308.03 K	–	49.59 ± 0.42
308.05 K	49.88 ± 0.85	–
313.16 K	49.27 ± 0.84	–
313.2 K	–	48.94 ± 0.42
317.89 K	48.85 ± 0.84	–
317.94 K	–	48.74 ± 0.42
323.16 K	48.36 ± 0.83	48.3 ± 0.42
328.06 K	–	47.88 ± 0.42
328.22 K	48.2 ± 0.83	–
333.03 K	–	47.55 ± 0.41
333.06 K	47.81 ± 0.83	–
337.77 K	–	47.21 ± 0.41
337.78 K	47.44 ± 0.83	–
343.45 K	–	46.74 ± 0.41
343.47 K	47.14 ± 0.82	–
347.24 K	46.8 ± 0.82	–
347.78 K	–	46.41 ± 0.41
353.48 K	46.51 ± 0.82	–
353.56 K	–	46.01 ± 0.41
358.13 K	46.25 ± 0.81	–
358.24 K	–	45.64 ± 0.41
364.65 K	45.8 ± 0.81	–
364.77 K	–	45.17 ± 0.4
